The NIST ThermoML archive (doi:10.1021/je800653d)
± gives the expanded uncertainty stated by the source.

Assay: xn = mol fraction of the nth substance listed
Conditions: 101 kPa, Liquid; for viscosity: Capillary tube (Ostwald / Ubbelohde) method; for speed of sound: Linear variable-path acoustic interferometer

O=S1(=O)CCCC1 [sulfolane] + CCCCOC(C)=O
Conditions	mass density, 303.15 K [kg/m3]	mass density, 308.15 K [kg/m3]	mass density, 313.15 K [kg/m3]	speed of sound, 303.15 K [m/s]	speed of sound, 308.15 K [m/s]	speed of sound, 313.15 K [m/s]	viscosity, 303.15 K [mPa·s]	viscosity, 308.15 K [mPa·s]	viscosity, 313.15 K [mPa·s]
x1 = 0.0311	880.8 ± 0.8	876.9 ± 0.8	871.8 ± 0.8	1182 ± 5	1164 ± 5	1146 ± 5	0.6426 ± 0.0064	0.6016 ± 0.006	0.5637 ± 0.0057
x1 = 0.1903	932.3 ± 0.8	928.6 ± 0.9	923.5 ± 0.9	1232 ± 5	1212 ± 5	1193 ± 5	0.895 ± 0.0085	0.8248 ± 0.0079	0.7699 ± 0.0074
x1 = 0.3402	985.2 ± 0.9	980.9 ± 0.9	975.4 ± 0.9	1280 ± 5	1261 ± 5	1245 ± 5	1.242 ± 0.011	1.145 ± 0.011	1.066 ± 0.01
x1 = 0.474	1036.1 ± 1	1030.9 ± 1	1025.4 ± 1	1327 ± 6	1316 ± 6	1301 ± 5	1.722 ± 0.016	1.577 ± 0.014	1.457 ± 0.013
x1 = 0.5789	1078.5 ± 1	1072.7 ± 1	1067.1 ± 1.1	1372 ± 6	1366 ± 6	1354 ± 6	2.3 ± 0.021	2.082 ± 0.019	1.903 ± 0.017
x1 = 0.6793	1120.5 ± 1.1	1114.4 ± 1.1	1108.8 ± 1.1	1424 ± 6	1418 ± 6	1408 ± 6	3.027 ± 0.027	2.717 ± 0.024	2.471 ± 0.022
x1 = 0.7887	1168.2 ± 1.1	1162.1 ± 1.2	1156.6 ± 1.2	1477 ± 6	1468 ± 6	1466 ± 6	4.275 ± 0.037	3.837 ± 0.034	3.436 ± 0.03
x1 = 0.8876	1212.2 ± 1.2	1207.1 ± 1.2	1201.5 ± 1.3	1528 ± 6	1520 ± 6	1510 ± 6	6.2 ± 0.052	5.499 ± 0.047	4.902 ± 0.042
x1 = 0.9836	1254.2 ± 1.3	1250.1 ± 1.3	1244.8 ± 1.3	1577 ± 7	1572 ± 7	1556 ± 6	9.049 ± 0.072	7.925 ± 0.064	6.987 ± 0.058
x1 = 1	1261.8 ± 1.3	1257 ± 1.3	1251.6 ± 1.3	1588 ± 7	1576 ± 7	1558 ± 7	10.03 ± 0.079	8.795 ± 0.07	7.837 ± 0.063

O=S1(=O)CCCC1 [sulfolane] + CCCOC(C)=O
Conditions	mass density, 303.15 K [kg/m3]	mass density, 308.15 K [kg/m3]	mass density, 313.15 K [kg/m3]	speed of sound, 303.15 K [m/s]	speed of sound, 308.15 K [m/s]	speed of sound, 313.15 K [m/s]	viscosity, 303.15 K [mPa·s]	viscosity, 308.15 K [mPa·s]	viscosity, 313.15 K [mPa·s]
x1 = 0.0247	886.9 ± 0.8	881.9 ± 0.8	875.7 ± 0.8	1154 ± 5	1147 ± 5	1134 ± 5	0.5146 ± 0.0056	0.4827 ± 0.005	0.4554 ± 0.0048
x1 = 0.1746	941.4 ± 0.8	935.8 ± 0.9	929.8 ± 0.9	1214 ± 5	1203 ± 5	1189 ± 5	0.726 ± 0.0071	0.6764 ± 0.0067	0.6342 ± 0.0063
x1 = 0.311	992.9 ± 0.9	986.9 ± 0.9	981.3 ± 1	1266 ± 5	1257 ± 5	1243 ± 5	1.019 ± 0.0096	0.9439 ± 0.0089	0.8781 ± 0.0084
x1 = 0.4416	1043.1 ± 1	1037.9 ± 1	1032.4 ± 1	1322 ± 6	1312 ± 6	1301 ± 5	1.438 ± 0.013	1.325 ± 0.012	1.222 ± 0.011
x1 = 0.5468	1084.6 ± 1	1079.6 ± 1.1	1074 ± 1.1	1368 ± 6	1359 ± 6	1352 ± 6	1.922 ± 0.017	1.762 ± 0.016	1.617 ± 0.015
x1 = 0.6489	1124.9 ± 1.1	1120.1 ± 1.1	1114.1 ± 1.1	1419 ± 6	1410 ± 6	1401 ± 6	2.624 ± 0.023	2.375 ± 0.021	2.176 ± 0.019
x1 = 0.7639	1169.5 ± 1.1	1164.7 ± 1.2	1159.4 ± 1.2	1474 ± 6	1469 ± 6	1458 ± 6	3.92 ± 0.034	3.502 ± 0.031	3.185 ± 0.028
x1 = 0.8733	1212.3 ± 1.2	1207.6 ± 1.2	1202.2 ± 1.3	1530 ± 6	1521 ± 6	1510 ± 6	5.863 ± 0.049	5.217 ± 0.045	4.662 ± 0.04
x1 = 0.9823	1255.4 ± 1.3	1251 ± 1.3	1245.4 ± 1.3	1579 ± 7	1573 ± 7	1555 ± 6	9.305 ± 0.074	8.132 ± 0.065	7.222 ± 0.059
x1 = 1	1261.8 ± 1.3	1257 ± 1.3	1251.6 ± 1.3	1588 ± 7	1576 ± 7	1558 ± 7	10.03 ± 0.079	8.795 ± 0.07	7.837 ± 0.063

O=S1(=O)CCCC1 [sulfolane] + CCOC(C)=O
Conditions	mass density [kg/m3]	speed of sound [m/s]	viscosity [mPa·s]
298.15 K, x1 = 1	1263.9 ± 1.3	1601 ± 7	–
303.15 K, x1 = 0.0218	897.8 ± 0.8	1134 ± 5	0.4006 ± 0.0043
303.15 K, x1 = 0.1511	950.7 ± 0.9	1196 ± 5	0.5566 ± 0.0056
303.15 K, x1 = 0.2748	1001.1 ± 0.9	1251 ± 5	0.7832 ± 0.0076
303.15 K, x1 = 0.4012	1052.3 ± 1	1313 ± 6	1.118 ± 0.01
303.15 K, x1 = 0.5068	1094 ± 1	1366 ± 6	1.5 ± 0.014
303.15 K, x1 = 0.598	1127.6 ± 1.1	1408 ± 6	2.054 ± 0.018
303.15 K, x1 = 0.7331	1175.4 ± 1.2	1472 ± 6	3.211 ± 0.028
303.15 K, x1 = 0.8548	1215.5 ± 1.2	1524 ± 6	5.285 ± 0.045
303.15 K, x1 = 0.9799	1255.5 ± 1.3	1579 ± 7	9.205 ± 0.073
303.15 K, x1 = 1	1261.8 ± 1.3	1588 ± 7	10.03 ± 0.079
308.15 K, x1 = 0.0218	893.2 ± 0.8	1121 ± 5	0.3819 ± 0.0041
308.15 K, x1 = 0.1511	947.1 ± 0.9	1185 ± 5	0.5275 ± 0.0054
308.15 K, x1 = 0.2748	997.7 ± 0.9	1241 ± 5	0.73 ± 0.0071
308.15 K, x1 = 0.4012	1048.8 ± 1	1301 ± 5	1.042 ± 0.0098
308.15 K, x1 = 0.5068	1090.3 ± 1.1	1355 ± 6	1.394 ± 0.013
308.15 K, x1 = 0.598	1123.9 ± 1.1	1398 ± 6	1.882 ± 0.017
308.15 K, x1 = 0.7331	1171.5 ± 1.2	1465 ± 6	2.923 ± 0.026
308.15 K, x1 = 0.8548	1211.6 ± 1.2	1515 ± 6	4.756 ± 0.041
308.15 K, x1 = 0.9799	1251.9 ± 1.3	1569 ± 7	8.078 ± 0.065
308.15 K, x1 = 1	1257 ± 1.3	1576 ± 7	8.795 ± 0.07
313.15 K, x1 = 0.0218	885.1 ± 0.8	1092 ± 5	0.3633 ± 0.004
313.15 K, x1 = 0.1511	939.5 ± 0.9	1154 ± 5	0.4961 ± 0.0051
313.15 K, x1 = 0.2748	989.9 ± 1	1216 ± 5	0.6874 ± 0.0067
313.15 K, x1 = 0.4012	1040.5 ± 1	1283 ± 5	0.9781 ± 0.0092
313.15 K, x1 = 0.5068	1082.1 ± 1.1	1346 ± 6	1.292 ± 0.012
313.15 K, x1 = 0.598	1116.7 ± 1.1	1397 ± 6	1.752 ± 0.016
313.15 K, x1 = 0.7331	1164.7 ± 1.2	1464 ± 6	2.7 ± 0.024
313.15 K, x1 = 0.8548	1205.5 ± 1.3	1513 ± 6	4.281 ± 0.037
313.15 K, x1 = 0.9799	1245.8 ± 1.3	1555 ± 6	7.092 ± 0.058
313.15 K, x1 = 1	1251.6 ± 1.3	1558 ± 7	7.837 ± 0.063
